Test results reported in patent US9200051B2, “Peptide compound” (TAKEDA PHARMACEUTICAL COMPANY LIMITED, priority 2013, dated 2015).
Read-outs that look alike come from different tables or passages of the source. Square brackets hold non-standard residues; d marks the D form. Peptide text beside a SMILES is read from it. αMeF = C[C@](N)(Cc1ccccc1)C(=O)O; Aib = CC(C)(N)C(=O)O

Key:
human GIPR = target: T1, human GIPR (Homo sapiens, UniProt P48546); assay: Agonist activity against human GIPR, CRE-luciferase reporter assay (rise in intracellular cAMP) in hGIPR/CRE-LUC/CHO-K1 cells; type: cell-based
T1 construct: expressed in transfected cells; host or cells: CHO-K1 (CRE-LUC/CHO-K1), plasmid hGIPR/pMSRα-neo
T1 sequence (P48546 22-466): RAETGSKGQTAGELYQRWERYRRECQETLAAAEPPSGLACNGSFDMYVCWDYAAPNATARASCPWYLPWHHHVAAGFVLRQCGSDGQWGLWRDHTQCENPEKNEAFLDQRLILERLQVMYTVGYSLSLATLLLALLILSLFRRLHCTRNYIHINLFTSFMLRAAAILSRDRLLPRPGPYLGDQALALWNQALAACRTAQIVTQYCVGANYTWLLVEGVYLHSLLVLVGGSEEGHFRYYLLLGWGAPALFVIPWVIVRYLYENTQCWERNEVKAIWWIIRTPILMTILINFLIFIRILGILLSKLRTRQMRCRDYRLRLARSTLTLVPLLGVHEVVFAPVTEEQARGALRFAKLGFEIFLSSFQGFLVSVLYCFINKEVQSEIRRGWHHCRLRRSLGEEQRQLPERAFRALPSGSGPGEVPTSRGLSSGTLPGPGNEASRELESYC

human GLP-1R = target: T2, human GLP-1R (Homo sapiens, UniProt P43220); assay: Agonist activity against human GLP-1R, CRE-luciferase reporter assay in hGLP-1R/CRE-luc/CHO-K1 cells; type: cell-based
T2 construct: expressed in transfected cells; host or cells: CHO-K1, plasmids hGLP-1/pIRESneo3 and Cre-luc(Zeo)

human glucagon R = target: T3, human glucagon R (Homo sapiens, UniProt P47871); assay: Agonist activity against human glucagon R, CRE-luciferase reporter assay in hGlucagonR/CRE-LUC/CHO-K1 cells; type: cell-based
T3 construct: expressed in transfected cells; host or cells: CHO-K1 (CRE-LUC/CHO-K1), plasmid hGlucagonR/pMSRα-neo

[1] = Solubility test in Britton-Robinson buffer, observed visually; type: physicochemical
Experimental: The test compound of approximately 2 mg was measured precisely. Solvents (10 μL, 20 μL or 40 μL) with different pH (Britton-Robinson buffer (pH 3, 5, 7, 9)) were added to each test compound at 25° C., and the solubility was observed visually.

[2] = hGIPR/CRE-LUC/CHO-K1 cells, 4 hours incubation, 10 nM GIP = 100%, read-out: Agonist activity (EC50) hGIPR
[3] = hGLP-1R/CRE-luc/CHO-K1 cells, 4 hours incubation, 10 nM GLP-1 = 100%, read-out: Agonist activity (EC50) hGLP-1R
[4] = hGlucagonR/CRE-LUC/CHO-K1 cells, 4 hours incubation, 10 nM glucagon = 100%, read-out: Agonist activity (EC50) hGCGR

T2 sequence (P43220 24-463): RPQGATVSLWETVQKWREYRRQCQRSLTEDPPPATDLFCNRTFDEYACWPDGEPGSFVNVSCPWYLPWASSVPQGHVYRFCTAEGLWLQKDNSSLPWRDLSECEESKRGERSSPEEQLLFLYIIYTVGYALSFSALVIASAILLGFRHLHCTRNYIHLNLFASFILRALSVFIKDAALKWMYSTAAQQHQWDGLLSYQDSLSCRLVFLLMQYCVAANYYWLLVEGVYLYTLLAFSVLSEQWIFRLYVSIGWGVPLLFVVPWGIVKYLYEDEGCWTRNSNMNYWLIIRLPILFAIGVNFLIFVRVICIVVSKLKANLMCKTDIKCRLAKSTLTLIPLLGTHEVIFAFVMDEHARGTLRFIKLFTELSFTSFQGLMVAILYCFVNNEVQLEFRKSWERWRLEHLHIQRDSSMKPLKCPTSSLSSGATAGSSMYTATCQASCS
T3 sequence (P47871 26-477): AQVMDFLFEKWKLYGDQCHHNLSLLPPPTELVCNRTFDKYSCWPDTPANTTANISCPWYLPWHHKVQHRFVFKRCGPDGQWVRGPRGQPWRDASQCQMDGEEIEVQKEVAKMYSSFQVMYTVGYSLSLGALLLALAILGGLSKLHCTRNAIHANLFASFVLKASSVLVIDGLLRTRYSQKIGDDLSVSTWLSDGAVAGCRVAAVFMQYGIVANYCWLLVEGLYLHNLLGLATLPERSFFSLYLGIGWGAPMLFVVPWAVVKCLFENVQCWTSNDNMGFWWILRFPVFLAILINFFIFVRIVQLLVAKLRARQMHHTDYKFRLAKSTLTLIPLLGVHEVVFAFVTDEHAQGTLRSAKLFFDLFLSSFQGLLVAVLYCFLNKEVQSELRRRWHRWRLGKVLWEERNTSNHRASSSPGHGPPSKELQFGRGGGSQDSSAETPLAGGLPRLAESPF

`CC(C)C[C@H](NC(=O)[C@H](CC(C)C)NC(=O)[C@H](Cc1c[nH]c2ccccc12)NC(=O)[C@H](CCCCN)NC(=O)[C@@H](NC(=O)[C@H](Cc1ccccc1)NC(=O)[C@H](CCC(=O)O)NC(=O)[C@H](CCC(N)=O)NC(=O)[C@H](CCC(N)=O)NC(=O)[C@H](C)NC(=O)[C@H](CCC(N)=O)NC(=O)[C@H](CCCCN)NC(=O)[C@H](CC(=O)O)NC(=O)[C@H](CC(C)C)NC(=O)[C@H](Cc1ccc(O)cc1)NC(=O)[C@H](CCCCN)NC(=O)C(C)(C)NC(=O)[C@H](Cc1ccc(O)cc1)NC(=O)[C@H](CC(=O)O)NC(=O)[C@H](CO)NC(=O)[C@@H](NC(=O)[C@](C)(Cc1ccccc1)NC(=O)[C@@H](NC(=O)CNC(=O)[C@H](CCC(=O)O)NC(=O)C(C)(C)NC(=O)[C@@H](N)Cc1ccc(O)cc1)[C@@H](C)O)[C@@H](C)O)C(C)C)C(=O)N[C@@H](CCCCN)C(=O)NCC(=O)NCC(=O)N1CCC[C@H]1C(=O)N[C@@H](CO)C(=O)N[C@@H](CO)C(=O)NCC(=O)N[C@@H](C)C(=O)N1CCC[C@H]1C(=O)N1CCC[C@H]1C(=O)N1CCC[C@H]1C(=O)N[C@@H](CO)C(N)=O` [Example 26] (H-Y[Aib]EGT[αMeF]TSDY[Aib]KYLDKQAQQEFVKWLLKGGPSSGAPPPS-NH2) showed an EC50 (human GIPR; [2]) of 0.013 nM, an EC50 (human GLP-1R; [3]) of 0.015 nM and an EC50 (human glucagon R; [4]) greater than 1000 nM. It also gave a solubility ([1]; pH 3) greater than 200 mg/mL, a solubility ([1]; pH 5) greater than 200 mg/mL and a solubility ([1]; pH 7) greater than 200 mg/mL. It also gave a solubility ([1]; pH 9) greater than 200 mg/mL.
Molecule `CC[C@H](C)[C@H](NC(=O)C(C)(C)NC(=O)[C@H](Cc1ccc(O)cc1)NC(=O)[C@H](CC(=O)O)NC(=O)[C@H](CO)NC(=O)[C@@H](NC(=O)[C@](C)(Cc1ccccc1)NC(=O)[C@@H](NC(=O)CNC(=O)[C@H](CCC(=O)O)NC(=O)C(C)(C)NC(=O)[C@@H](N)Cc1ccc(O)cc1)[C@@H](C)O)[C@@H](C)O)C(=O)NC(C)(C)C(=O)N[C@@H](CC(C)C)C(=O)N[C@@H](CC(=O)O)C(=O)N[C@@H](CCCCN)C(=O)N[C@@H](CCC(N)=O)C(=O)N[C@@H](C)C(=O)N[C@@H](CCC(N)=O)C(=O)N[C@@H](C)C(=O)N[C@@H](CCC(=O)O)C(=O)N[C@@H](Cc1ccccc1)C(=O)N[C@H](C(=O)N[C@@H](CCCCN)C(=O)N[C@@H](Cc1c[nH]c2ccccc12)C(=O)N[C@@H](CC(C)C)C(=O)N[C@@H](CC(C)C)C(=O)N[C@@H](CCCCN)C(=O)NCC(=O)NCC(=O)N1CCC[C@H]1C(=O)N[C@@H](CO)C(=O)N[C@@H](CO)C(=O)NCC(=O)N[C@@H](C)C(=O)N1CCC[C@H]1C(=O)N1CCC[C@H]1C(=O)N1CCC[C@H]1C(=O)N[C@@H](CO)C(=O)N[C@@H](CCCCN)C(N)=O)C(C)C` [Example 2] (H-Y[Aib]EGT[αMeF]TSDY[Aib]I[Aib]LDKQAQAEFVKWLLKGGPSSGAPPPSK-NH2) has an EC50 (human GIPR) of 0.0068 nM, an EC50 (human GLP-1R) of 0.016 nM and an EC50 (human glucagon R) greater than 1000 nM. The solubility ([1]; Britton-Robinson buffer pH 3, 25° C., visual, read-out: Solubility (mg /mL) pH 3) was greater than 100 mg/mL, the solubility ([1]; Britton-Robinson buffer pH 5, 25° C., visual, read-out: Solubility (mg /mL) pH 5) was greater than 100 mg/mL and the solubility ([1]; Britton-Robinson buffer pH 7, 25° C., visual, read-out: Solubility (mg /mL) pH 7) was greater than 50 mg/mL. For the same molecule, the solubility ([1]; Britton-Robinson buffer pH 9, 25° C., visual, read-out: Solubility (mg /mL) pH 9) was greater than 50 mg/mL.
`CC(C)C[C@H](NC(=O)[C@H](CC(C)C)NC(=O)[C@H](Cc1c[nH]c2ccccc12)NC(=O)[C@H](CCCCN)NC(=O)[C@@H](NC(=O)[C@H](Cc1ccccc1)NC(=O)[C@H](CCC(=O)O)NC(=O)[C@H](CCC(N)=O)NC(=O)[C@H](CCC(N)=O)NC(=O)[C@H](C)NC(=O)[C@H](CCC(N)=O)NC(=O)[C@H](CCCCN)NC(=O)[C@H](CC(=O)O)NC(=O)[C@H](CC(C)C)NC(=O)[C@H](Cc1ccc(O)cc1)NC(=O)[C@H](CCCCN)NC(=O)C(C)(C)NC(=O)[C@H](Cc1ccc(O)cc1)NC(=O)[C@H](CC(=O)O)NC(=O)[C@H](CO)NC(=O)[C@@H](NC(=O)[C@](C)(Cc1ccccc1)NC(=O)[C@@H](NC(=O)CNC(=O)[C@H](CCC(=O)O)NC(=O)C(C)(C)NC(=O)[C@@H](N)Cc1ccc(O)cc1)[C@@H](C)O)[C@@H](C)O)C(C)C)C(=O)N[C@@H](CCCCN)C(=O)NCC(=O)NCC(=O)N1CCC[C@H]1C(=O)N[C@@H](CO)C(=O)N[C@@H](CO)C(=O)NCC(=O)N[C@@H](C)C(=O)N1CCC[C@H]1C(=O)N1CCC[C@H]1C(=O)N1CCC[C@H]1C(=O)N[C@@H](CO)C(=O)N[C@@H](CCCCN)C(N)=O` [Example 25] (H-Y[Aib]EGT[αMeF]TSDY[Aib]KYLDKQAQQEFVKWLLKGGPSSGAPPPSK-NH2) showed an EC50 (human GIPR; [2]) of 0.013 nM, an EC50 (human GLP-1R; [3]) of 0.014 nM and an EC50 (human glucagon R; [4]) greater than 1000 nM. It also gave a solubility ([1]; pH 3) greater than 200 mg/mL, a solubility ([1]; pH 5) greater than 200 mg/mL and a solubility ([1]; pH 7) greater than 200 mg/mL. The solubility ([1]; pH 9) was greater than 200 mg/mL.
For `CC[C@H](C)[C@H](NC(=O)[C@H](C)NC(=O)[C@H](Cc1ccc(O)cc1)NC(=O)[C@H](CC(=O)O)NC(=O)[C@H](CO)NC(=O)[C@@H](NC(=O)[C@](C)(Cc1ccccc1)NC(=O)[C@@H](NC(=O)CNC(=O)[C@H](CCC(=O)O)NC(=O)C(C)(C)NC(=O)[C@@H](N)Cc1ccc(O)cc1)[C@@H](C)O)[C@@H](C)O)C(=O)NC(C)(C)C(=O)N[C@@H](CC(C)C)C(=O)N[C@@H](CC(=O)O)C(=O)N[C@@H](CCCCN)C(=O)N[C@@H](CCC(N)=O)C(=O)N[C@@H](C)C(=O)N[C@@H](CCC(N)=O)C(=O)N[C@@H](CO)C(=O)N[C@@H](CCC(=O)O)C(=O)N[C@@H](Cc1ccccc1)C(=O)N[C@H](C(=O)N[C@@H](CCCCN)C(=O)N[C@@H](Cc1c[nH]c2ccccc12)C(=O)N[C@@H](CC(C)C)C(=O)N[C@@H](CC(C)C)C(=O)N[C@@H](CCCCN)C(=O)NCC(=O)NCC(=O)N1CCC[C@H]1C(=O)N[C@@H](CO)C(=O)N[C@@H](CO)C(=O)NCC(=O)N[C@@H](C)C(=O)N1CCC[C@H]1C(=O)N1CCC[C@H]1C(=O)N1CCC[C@H]1C(=O)N[C@@H](CO)C(N)=O)C(C)C` [Example 7] (H-Y[Aib]EGT[αMeF]TSDYAI[Aib]LDKQAQSEFVKWLLKGGPSSGAPPPS-NH2), the EC50 (human GIPR; [2]) was 0.0069 nM, the EC50 (human GLP-1R; [3]) was 0.0088 nM and the EC50 (human glucagon R; [4]) was greater than 1000 nM.
Molecule `CC[C@H](C)[C@H](NC(=O)C(C)(C)NC(=O)[C@H](Cc1ccc(O)cc1)NC(=O)[C@H](CC(=O)O)NC(=O)[C@H](CO)NC(=O)[C@@H](NC(=O)[C@](C)(Cc1ccccc1)NC(=O)[C@@H](NC(=O)CNC(=O)[C@H](CCC(=O)O)NC(=O)C(C)(C)NC(=O)[C@H](Cc1ccc(O)cc1)NC(C)=O)[C@@H](C)O)[C@@H](C)O)C(=O)NC(C)(C)C(=O)N[C@@H](CC(C)C)C(=O)N[C@@H](CC(=O)O)C(=O)N[C@@H](CCCCN)C(=O)N[C@@H](CCC(N)=O)C(=O)N[C@@H](C)C(=O)N[C@@H](CCC(N)=O)C(=O)N[C@@H](C)C(=O)N[C@@H](CCC(=O)O)C(=O)N[C@@H](Cc1ccccc1)C(=O)N[C@H](C(=O)N[C@@H](CCCCN)C(=O)N[C@@H](Cc1c[nH]c2ccccc12)C(=O)N[C@@H](CC(C)C)C(=O)N[C@@H](CC(C)C)C(=O)N[C@@H](CCCCN)C(=O)NCC(=O)NCC(=O)N1CCC[C@H]1C(=O)N[C@@H](CO)C(=O)N[C@@H](CO)C(=O)NCC(=O)N[C@@H](C)C(=O)N1CCC[C@H]1C(=O)N1CCC[C@H]1C(=O)N1CCC[C@H]1C(=O)N[C@@H](CO)C(=O)N[C@@H](CCCCN)C(N)=O)C(C)C` [Example 18] (Ac-Y[Aib]EGT[αMeF]TSDY[Aib]I[Aib]LDKQAQAEFVKWLLKGGPSSGAPPPSK-NH2) has an EC50 (human GIPR; [2]) of 0.027 nM, an EC50 (human GLP-1R; [3]) of 0.13 nM and an EC50 (human glucagon R; [4]) greater than 1000 nM.
Molecule `CC(C)C[C@H](NC(=O)[C@H](CC(C)C)NC(=O)[C@H](Cc1c[nH]c2ccccc12)NC(=O)[C@H](CCCCN)NC(=O)[C@@H](NC(=O)[C@H](Cc1ccccc1)NC(=O)[C@H](CCC(=O)O)NC(=O)[C@H](C)NC(=O)[C@H](CCC(N)=O)NC(=O)[C@H](C)NC(=O)[C@H](CCC(N)=O)NC(=O)[C@H](CCCCN)NC(=O)[C@H](CC(=O)O)NC(=O)[C@H](CC(C)C)NC(=O)[C@H](Cc1ccc(O)cc1)NC(=O)[C@H](CCCCN)NC(=O)C(C)(C)NC(=O)[C@H](Cc1ccc(O)cc1)NC(=O)[C@H](CC(=O)O)NC(=O)[C@H](CO)NC(=O)[C@@H](NC(=O)[C@](C)(Cc1ccccc1)NC(=O)[C@@H](NC(=O)CNC(=O)[C@H](CCC(=O)O)NC(=O)C(C)(C)NC(=O)[C@@H](N)Cc1ccc(O)cc1)[C@@H](C)O)[C@@H](C)O)C(C)C)C(=O)N[C@@H](CCCCN)C(=O)NCC(=O)NCC(=O)N1CCC[C@H]1C(=O)N[C@@H](CO)C(=O)N[C@@H](CO)C(=O)NCC(=O)N[C@@H](C)C(=O)N1CCC[C@H]1C(=O)N1CCC[C@H]1C(=O)N1CCC[C@H]1C(=O)N[C@@H](CO)C(=O)N[C@@H](CCCCN)C(N)=O` [Example 24] (H-Y[Aib]EGT[αMeF]TSDY[Aib]KYLDKQAQAEFVKWLLKGGPSSGAPPPSK-NH2) has an EC50 (human GIPR; [2]) of 0.0099 nM, an EC50 (human GLP-1R; [3]) of 0.011 nM and an EC50 (human glucagon R; [4]) greater than 1000 nM. For the same molecule, the solubility ([1]; pH 3) was greater than 200 mg/mL, the solubility ([1]; pH 5) was greater than 200 mg/mL and the solubility ([1]; pH 7) was greater than 200 mg/mL. The solubility ([1]; pH 9) was greater than 200 mg/mL.
